# Reference: paper PMC6290777, “Inhalation of the prodrug PI3K inhibitor CL27c improves lung function in asthma and fibrosis” (Nature Communications, 2018)
# Legend:
# [1] = tested on: Akt phosphorylation (Ser473) in bone marrow-derived macrophages (BMDM); assay: Akt phosphorylation in BMDM stimulated with C5a; type: cell-based, mouse; settings: C5a 25 nM
# Description: BMDMs were obtained from bone marrows isolated from femurs and tibias of C57BL/6J mice. Bone marrow cells were cultured in a petri plate in the presence of RPMI additioned with 30% L-cell conditioned medium (supernatant of 5 days culture of L929 cells), 20% FBS and 100 μg/ml penicillin and streptomycin. After about 7 days, almost all cells became attached BMDM. BMDM were pretreated with Versene (GIBCO^TM #15040066) to detach them from the plate, washed, and placed on a 24 wells culture plate at a density of 2 × 10^5 cell/well in RPMI free medium. After 6 h of starvation, BMDMs were pretreated with CL27c at different concentrations and stimulated with C5a (25 nM, Sigma-Aldrich #SRP4895A) for 5 min. Proteins were extracted with Laemnli buffer.
# For all cell types, phosphorylated Akt (P-Akt, Ser 473, 1:100, Cell Signaling Technology #4060) production was detected by western blot analysis and quantified with ChemiDoc™ XRS system. P-Akt signals are normalized on endogenous. For the calculation of EC50 values, a percentage of residual P-Akt was calculated for each inhibitor concentration by using the control vehicle as 100%. To derive the EC50, all data were plotted on a dose response curve (Graph Pad software) and the EC50 was calculated by using the non-linear regression fit (equation [log agonist] vs response–variable slope). […]
# panel). […] The respective EC50 was calculated by using nonlinear
# [2] = tested on: glucocorticoid-resistant neutrophilic asthma; assay: Glucocorticoid-resistant asthma model; type: in vivo, BALB/c mice; settings: CL27c 2 mg/ml aerosol
# Description: BALF was performed to obtain leukocytes from alveolar space. The trachea was exposed and a 1.7-mm-outside-diameter polyethylene catheter was inserted. BAL was performed by washing the lungs three-times with three different 500 µl aliquots of PBS. BALF samples were centrifuged at 600 × g for 10 min at 4 °C on a histology glass slide and stained with Diff Quick (MICROPTIC, #DQ-ST). The number of leukocytes and differential counts of different population were obtained evaluating the percentage leukocyte populations over the total cell number.
# Mice were anesthetized with a subcutaneous injection of ketamine and xylazine (130 mg/Kg ketamine and 8.5 mg/Kg xylazine) to maintain spontaneous breathing under anesthesia. Mice were tracheostomized, placed in a body plethysmograph and connected to a computer-controlled ventilator (Forced Pulmonary Maneuver System®, Buxco Research Systems©, Wilmington, North Carolina USA). First, an average breathing frequency of 160 breaths/min was imposed to the anesthetized animal by a pressure-controlled ventilation until a regular breathing pattern and complete expiration at each breathing cycle was obtained. Under mechanical respiration, respiratory flow and airway pressure were measured to compute dynamic compliance (Cdyn) and lung resistance (RL). To measure the TLC, pressure–volume maneuvers were performed, where lungs were inflated to a standard pressure of +30 cm H2O and then let slowly exhale until a negative pressure of −30 cm H2O was reached. To measure the FEV Fast-Flow Volume maneuvers was performed. In this maneuver, lungs were first inflated to +30 cm H2O (TLC) and, immediately, a negative pressure (−30 cm H2O) was applied in order to enforce expiration. To evaluate AHR, the same mice used in previous maneuvers (basal condition) received Metacholine, 1 mg/Kg (Acetyl-β-methylcholine chloride, A-2251, Sigma-Aldrich St.Louis, MO,USA) i.v., and 20 sec after, a new set of maneuvers were conducted to assess RL changes. Suboptimal maneuvers were rejected and for each test in every single mouse at least three acceptable maneuvers were conducted to obtain a reliable mean for all numeric parameters.
# IL-5, IL-13, eotaxin, TGF-β, KC, IL-17A, and MCP-1 levels in the BALF and anti-OVA IgE levels in serum were measured by ELISA technique using commercial DuoSet kits R&D Systems according to the instructions of the manufacturer. Results were expressed in levels of cytokines per ml of […] (pg/ml) or arbitrary units (A.U.).
# On day 1 BALB/c mice received systemic immunization by subcutaneous injection of 20 µg of chicken egg ovalbumin (OVA grade V, >98% pure; Sigma, St Louis, MO) in saline, emulsified in 75 µL CFA (Complete Freund’s Adjuvant; Sigma-Aldrich) (Figure 5)[52]. On days 25–28 mice were exposed to aerosolised ovalbumin (1% in saline) for 20 min per day. Mice were exposed during 30 min to aerosolized CL27c (2 mg/ml dissolved in 0.5 % tylaxopol/saline solution) or vehicle (0.5% tyloxapol/saline solution), or to systemic treatment with dexamethasone (5 mg/kg i.p. injection). Untreated control groups included mice challenged with PBS alone. On day 29, mice were sacrificed, and samples were collected for further analysis.
# The left lung was removed and fixed in 4% neutral phosphate-buffered formalin (pH 7.4)[10]. The tissues were dehydrated gradually in ethanol, embedded in paraffin, cut into 4 µm sections, stained with H&E, Gomori’s trichrome and periodic acid schiff (PAS), and examined under light microscopy by a pathologist in a double blinded manner. Images of lung sections were captured with a digital camera (Optronics DEI-470) connected to a microscope (Olympus IX70) with a magnification of ×40 or ×100. Inflammation was scored according to modification of existing protocols[53] and to the histopathology criteria reported in Supplementary Table 4.
smiles,measurement,setting,value
COC(=O)c1cccc(Cn2cc(-c3cccc4c(=O)cc(N5CCOCC5)[nH]c34)nn2)c1 [CL27c],Akt/PKB phosphorylation,[1],readily reduced Akt/PKB phosphorylation
same,"abundance of cytokines (MCP-1, IL-17A, KC, Eotaxin, IFN-γ)",[2],could not block systemic production of these mediators
same,airway hyperreactivity and lung resistance,[2]; dexamethasone 5 mg/kg i.p.,without modifying either airway hyperreactivity or lung resistance
same,histopathology: overall score of lung damage / tissue inflammation,[2]; dexamethasone 5 mg/kg i.p.,significantly reduce the overall score of lung damage
same,lung compliance (Cdyn),[2]; dexamethasone 5 mg/kg i.p.,restored normal lung compliance
same,number of inflammatory cells in BALF,[2]; dexamethasone 5 mg/kg i.p.,reduce the number of inflammatory cells in BALF
